For the assay, the target named is human SPR (Homo sapiens (Human), UniProt P35270). As to the kind of experiment: Evaluation Example 2: Measurement of human SPR inhibitory activity (seven concentrations, sepiapterin absorbance at 420 nm). Format: biochemical. The method, boiled down:
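His-tagged full-length human SPR (1-261) was expressed in E. coli and the tag removed. Enzyme at 150 ng/mL in 100 mM Tris-HCl pH 7.5/0.01% BSA was mixed with compound (0.14–100 nM, seven points), 120 μM sepiapterin and 160 μM NADPH, both as added-solution concentrations. After 240 min at room temperature, remaining sepiapterin was read at 420 nm to give percent inhibition.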

The mark [1] stands for this setting: Evaluation Example 2, seven concentrations 0.14 nM to 100 nM, 240 minutes at room temperature, read-out: IC50.
Where [2] appears, read: sepiapterin absorbance, Table 41, read-out: concentration at 50% inhibition of human SPR (IC50).

SMILES strings stand for the structures. Structures can show the parent of a compound that is named as a salt. Where two headings read alike, the source gives them in different places.

Chain of human SPR (P35270 whole entry): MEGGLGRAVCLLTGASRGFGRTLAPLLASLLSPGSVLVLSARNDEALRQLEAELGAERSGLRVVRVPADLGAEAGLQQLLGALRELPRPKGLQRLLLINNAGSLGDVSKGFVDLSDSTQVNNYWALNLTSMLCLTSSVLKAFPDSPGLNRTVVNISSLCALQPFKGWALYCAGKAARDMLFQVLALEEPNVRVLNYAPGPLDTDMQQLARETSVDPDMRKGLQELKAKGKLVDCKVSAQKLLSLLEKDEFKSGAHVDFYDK

Take `CC(C)(C)Cn1c(=O)c(C(=O)NC2CC2)c(O)n2nc(Nc3cncc(F)n3)cc12` [Synthesis Example 356, N-Cyclopropyl-2-((6-fluoropyrazin-2-yl)amino)-7-hydroxy-4-neopentyl-5-oxo-4,5-dihydropyrazolo[1,5-a]pyrimidine-6-carboxamide]: the IC50 under setting [1] is 1.16 nM. Turning to `CC(C)Cn1c(=O)c(C(=O)NC2CC2)c(O)n2ncc(/C=C/C(=O)N(C)Cc3cnccn3)c12` [Synthesis Example 709, (E)-N-Cyclopropyl-7-hydroxy-4-isobutyl-3-(3-(methyl(pyrazin-2-ylmethyl)amino)-3-oxoprop-1-en-1-yl)-5-oxo-4,5-dihydropyrazolo[1,5-a]pyrimidine-6-carboxamide], under setting [2], the IC50 was 0.85 nM.

On to `CC(C)(C)Cn1c(=O)c(C(=O)NC2CC2)c(O)n2nc(-c3cnc(F)cn3)cc12` [Synthesis Example 304, N-Cyclopropyl-2-(5-fluoropyrazin-2-yl)-7-hydroxy-4-neopentyl-5-oxo-4,5-dihydropyrazolo[1,5-a]pyrimidine-6-carboxamide], for which the IC50 under setting [1] was determined as 3 nM. With `CC(C)Cn1c(=O)c(C(=O)NC2CCC2)c(O)n2ncc(/C=C/C(=O)N3CCOCC3)c12` [compound 527, (E)-N-Cyclobutyl-7-hydroxy-4-isobutyl-3-(3-morpholino-3-oxoprop-1-en-1-yl)-5-oxo-4,5-dihydropyrazolo[1,5-a]pyrimidine-6-carboxamide], under setting [1], the IC50 stood at 0.74 nM. On the same count and under the same terms, to `CC[C@@H]1COCCN1C(=O)/C=C/c1cnn2c(O)c(C(=O)NC3CC3)c(=O)n(CC(C)C)c12` [compound 540, (R,E)-N-Cyclopropyl-3-(3-(3-ethylmorpholino)-3-oxoprop-1-en-1-yl)-7-hydroxy-4-isobutyl-5-oxo-4,5-dihydropyrazolo[1,5-a]pyrimidine-6-carboxamide] belongs 0.66 nM; to `CC(C)Cn1c(=O)c(C(=O)NC2CC2)c(O)n2ncc(/C=C/C(=O)N(C)C3CCOCC3)c12` [compound 523, (E)-N-Cyclopropyl-7-hydroxy-4-isobutyl-3-(3-(methyl(tetrahydro-2H-pyran-4-yl)amino)-3-oxoprop-1-en-1-yl)-5-oxo-4,5-dihydropyrazolo[1,5-a]pyrimidine-6-carboxamide], 0.71 nM.

For the compound `C[C@@H]1COCCN1C(=O)/C=C/c1cnn2c(O)c(C(=O)NC3CC3)c(=O)n(CC3(C)CC3)c12` [Synthesis Example 370, (R,E)-N-Cyclopropyl-7-hydroxy-4-((1-methylcyclopropyl)methyl)-3-(3-(3-methylmorpholino)-3-oxoprop-1-en-1-yl)-5-oxo-4,5-dihydropyrazolo[1,5-a]pyrimidine-6-carboxamide], under setting [1], the IC50 is 0.54 nM. `Cc1nn2c(O)c(C(=O)NC3CC3)c(=O)n(CC(C)C)c2c1/C=C/C(=O)N(C)Cc1ccccn1` [Synthesis Example 638, (E)-N-Cyclopropyl-7-hydroxy-4-isobutyl-2-methyl-3-(3-(methyl(pyridin-2-ylmethyl)amino)-3-oxoprop-1-en-1-yl)-5-oxo-4,5-dihydropyrazolo[1,5-a]pyrimidine-6-carboxamide]: the IC50 under setting [1] worked out at 1.05 nM. Regarding `CC(C)(F)Cn1c(=O)c(C(=O)NC2CC2)c(O)n2ncc(/C=C/C(=O)N3CCOCC3)c12` [Synthesis Example 390, (E)-N-Cyclopropyl-4-(2-fluoro-2-methylpropyl)-7-hydroxy-3-(3-morpholino-3-oxoprop-1-en-1-yl)-5-oxo-4,5-dihydropyrazolo[1,5-a]pyrimidine-6-carboxamide], the IC50 under setting [1] was determined as 0.71 nM.

`CC(C)Cn1c(=O)c(C(=O)NC2CC2)c(O)n2nc(N)c(/C=C/C(=O)N3CCOC[C@H]3C)c12` [Synthesis Example 418, (R,E)-2-Amino-N-cyclopropyl-7-hydroxy-4-isobutyl-3-(3-(3-methylmorpholino)-3-oxoprop-1-en-1-yl)-5-oxo-4,5-dihydropyrazolo[1,5-a]pyrimidine-6-carboxamide hydrochloride]: the IC50 under setting [1] amounted to 0.61 nM. Still for that read-out and setting: to `Cc1nn2c(O)c(C(=O)NC3CC3)c(=O)n(CC(C)C)c2c1/C=C/C(=O)N1CCC[C@H]1c1cccnc1` [Synthesis Example 633, (S,E)-N-Cyclopropyl-7-hydroxy-4-isobutyl-2-methyl-5-oxo-3-(3-oxo-3-(2-(pyridin-3-yl)pyrrolidin-1-yl)prop-1-en-1-yl)-4,5-dihydropyrazolo[1,5-a]pyrimidine-6-carboxamide] belongs 0.91 nM. Consider `CC[C@H]1COCCN1C(=O)/C=C/c1c(C)nn2c(O)c(C(=O)NC3CC3)c(=O)n(CC(C)(C)C)c12` [Synthesis Example 691, (S,E)-N-Cyclopropyl-3-(3-(3-ethylmorpholino)-3-oxoprop-1-en-1-yl)-7-hydroxy-2-methyl-4-neopentyl-5-oxo-4,5-dihydropyrazolo[1,5-a]pyrimidine-6-carboxamide], for which the IC50 under setting [2] amounted to 0.82 nM. Same read-out and setting: in the case of `CC(C)Cn1c(=O)c(C(=O)NC2CC2)c(O)n2ncc(/C=C/C(=O)N3CCN(C)C[C@@H]3C)c12` [Synthesis Example 713, (S,E)-N-Cyclopropyl-3-(3-(2,4-dimethylpiperazin-1-yl)-3-oxoprop-1-en-1-yl)-7-hydroxy-4-isobutyl-5-oxo-4,5-dihydropyrazolo[1,5-a]pyrimidine-6-carboxamide] it was 0.96 nM. Take `CC(C)/C=C/c1c(N)nn2c(O)c(C(=O)NC3CC3)c(=O)n(CC(C)(C)C)c12` [Synthesis Example 442, (E)-2-Amino-N-cyclopropyl-7-hydroxy-3-(3-methylbut-1-en-1-yl)-4-neopentyl-5-oxo-4,5-dihydropyrazolo[1,5-a]pyrimidine-6-carboxamide hydrochloride]: the IC50 under setting [1] was 1.53 nM. Still for that read-out and setting: in the case of `CC(C)Cn1c(=O)c(C(=O)NC2CC2)c(O)n2ncc(/C=C/C(=O)N3CCC[C@H]3CO)c12` [compound 510, (S,E)-N-Cyclopropyl-7-hydroxy-3-(3-(2-(hydroxymethyl)pyrrolidin-1-yl)-3-oxoprop-1-en-1-yl)-4-isobutyl-5-oxo-4,5-dihydropyrazolo[1,5-a]pyrimidine-6-carboxamide] it was 0.85 nM. On the same count and under the same terms, to `CC(C)Cn1c(=O)c(C(=O)NC2CC2)c(O)n2ncc(/C=C/C(=O)N3CCC[C@@H]3C)c12` [compound 458, (S,E)-N-Cyclopropyl-7-hydroxy-4-isobutyl-3-(3-(2-methylpyrrolidin-1-yl)-3-oxoprop-1-en-1-yl)-5-oxo-4,5-dihydropyrazolo[1,5-a]pyrimidine-6-carboxamide] belongs 0.79 nM. On the same count and under the same terms, to `CC1(Cn2c(=O)c(C(=O)NC3CC3)c(O)n3ncc(/C=C/C(=O)N4CC5CCC(C4)O5)c23)CC1` [Synthesis Example 368, (E)-3-(3-(8-Oxa-3-azabicyclo[3.2.1]octan-3-yl)-3-oxoprop-1-en-1-yl)-N-cyclopropyl-7-hydroxy-4-((1-methylcyclopropyl)methyl)-5-oxo-4,5-dihydropyrazolo[1,5-a]pyrimidine-6-carboxamide] belongs 0.61 nM. On to `CC(C)Cn1c(=O)c(C(=O)NC2CC2)c(O)n2ncc(C(=O)N3CCOCC3)c12` [Synthesis Example 227, N-Cyclopropyl-7-hydroxy-4-isobutyl-3-(morpholine-4-carbonyl)-5-oxo-4,5-dihydropyrazolo[1,5-a]pyrimidine-6-carboxamide], for which the IC50 under setting [1] was determined as 0.65 nM. Same read-out and setting: to `Nc1nn2c(O)c(C(=O)NC3CC3)c(=O)n(CC3CC3)c2c1/C=C/C(=O)N1CCOCC1` [Synthesis Example 419, (E)-2-Amino-N-cyclopropyl-4-(cyclopropylmethyl)-7-hydroxy-3-(3-morpholino-3-oxoprop-1-en-1-yl)-5-oxo-4,5-dihydropyrazolo[1,5-a]pyrimidine-6-carboxamide hydrochloride] belongs 0.83 nM. The same measure, in the same setting: to `CC(C)Cn1c(=O)c(C(=O)NC2CC2)c(O)n2ncc(/C=C/C(=O)N3CC[C@@H](F)C3)c12` [compound 481, (R,E)-N-Cyclopropyl-3-(3-(3-fluoropyrrolidin-1-yl)-3-oxoprop-1-en-1-yl)-7-hydroxy-4-isobutyl-5-oxo-4,5-dihydropyrazolo[1,5-a]pyrimidine-6-carboxamide] belongs 0.75 nM; to `CC(C)Cn1c(=O)c(C(=O)NC2CC2)c(O)n2nc(O)cc12` [Synthesis Example 318, N-Cyclopropyl-2,7-dihydroxy-4-isobutyl-5-oxo-4,5-dihydropyrazolo[1,5-a]pyrimidine-6-carboxamide], 1.43 nM. Still for that read-out and setting: in the case of `CNc1nn2c(O)c(C(=O)NC3CC3)c(=O)n(CC3(C)CCOCC3)c2c1/C=C/C1CCOCC1` [compound 585, (E)-N-Cyclopropyl-7-hydroxy-2-(methylamino)-4-((4-methyltetrahydro-2H-pyran-4-yl)methyl)-5-oxo-3-(2-(tetrahydro-2H-pyran-4-yl)vinyl)-4,5-dihydropyrazolo[1,5-a]pyrimidine-6-carboxamide] it was 1.23 nM; in that of `C[C@H](Nc1cc2n(CC(C)(C)C)c(=O)c(C(=O)NC3CC3)c(O)n2n1)c1ccccn1` [Synthesis Example 326, (S)-N-Cyclopropyl-7-hydroxy-4-neopentyl-5-oxo-2-((1-(pyridin-2-yl)ethyl)amino)-4,5-dihydropyrazolo[1,5-a]pyrimidine-6-carboxamide], 1.96 nM. For `Cc1nn2c(O)c(C(=O)NC3CC3)c(=O)n(CC(C)C)c2c1/C=C/C(=O)N1CCCC12CCOCC2` [Synthesis Example 631, (E)-N-Cyclopropyl-7-hydroxy-4-isobutyl-2-methyl-5-oxo-3-(3-oxo-3-(8-oxa-1-azaspiro[4.5]decan-1-yl)prop-1-en-1-yl)-4,5-dihydropyrazolo[1,5-a]pyrimidine-6-carboxamide], the IC50 under setting [1] came out at 0.66 nM. Regarding `Cc1nn2c(O)c(C(=O)NC3CC3)c(=O)n(CC(C)C)c2c1/C=C/C(=O)N1CCc2cnccc21` [Synthesis Example 705, (E)-N-Cyclopropyl-3-(3-(2,3-dihydro-1H-pyrrolo[3,2-c]pyridin-1-yl)-3-oxoprop-1-en-1-yl)-7-hydroxy-4-isobutyl-2-methyl-5-oxo-4,5-dihydropyrazolo[1,5-a]pyrimidine-6-carboxamide], the IC50 under setting [2] came out at 1.58 nM.

These data come from patent publication US20240092784A1, “CONDENSED HETEROCYCLIC COMPOUND” (NISSAN CHEMICAL CORPORATION, priority 2020, published 2024).
